The record followed here is US8648099B2 (Hoffmann-La Roche Inc., priority 2011, dated 2014).

In experiment [1] the target is T1, human CB2 receptor (Homo sapiens, UniProt P34972).
T1 construct: expressed in transfected cells; host or cells: human embryonic kidney (HEK) cells, Semliki Forest Virus system, membrane preparations
As to the kind of experiment: CB2 receptor affinity ([3H]-CP-55,940 displacement, HEK cell membranes). It counts as binding. To be noted: displacement of [3H]-CP-55,940 at 10 μM. The procedure: The affinity of the compounds of the invention for cannabinoid CB2 receptors was determined using membrane preparations of human embryonic kidney (HEK) cells in which the human CB2 receptor is transiently transfected using a Semliki Forest Virus system in conjunction with [^3H]-CP-55,940 as radioligand. After incubation of freshly prepared cell membrane preparation with the [^3H]-ligand, with or without addition of compounds of the invention, separation of bound and free ligand was performed by filtration over glass fiber filters. Radioactivity on the filter was measured by scintillation counting.
(§1) The ability of the compounds to displace the radioligand [^3H]-CP-55,940 was measured at a concentration of 10 μM and values provided as [% inhibition @ 10 μM] both for the CB1 and CB2 receptor assay, The lower % inhibition is, the lower the likelihood of side effects based on CB1 or CB2 receptor inhibition is.

In experiment [2] the target is T2, human CB1 receptor (Homo sapiens, UniProt P21554).
T2 construct: expressed in transfected cells; host or cells: human embryonic kidney (HEK) cells, Semliki Forest Virus system, membrane preparations
The experiment can be described thus: CB1 receptor affinity ([3H]-CP-55,940 displacement, HEK cell membranes). It is filed as binding. Particulars: displacement of [3H]-CP-55,940 at 10 μM; read-out: CB1 receptor affinity [% inhibition @ 10 μM]. The procedure:
The affinity of the compounds of the invention for cannabinoid receptors was determined using membrane preparations of human embryonic kidney (HEK) cells in which the human CB1 receptor is transiently transfected using a Semliki Forest Virus system in conjunction with [3H]-CP-55,940 as radioligand. After incubation of freshly prepared cell membrane preparation with the [^3H]-ligand, with or without addition of compounds of the invention, separation of bound and free ligand was performed by filtration over glass fiber filters. Radioactivity on the filter was measured by scintillation counting.
as §1

Experiment [3] has as its system ABCA1 protein. As to the kind of experiment: Detection of upregulation of ABCA1 protein in cells (ApoA-I binding, high content imaging). It counts as cell-based. Particulars: THP-1 macrophage cells; for % increase of ABCA1 at 3 μM: compound at 3 μM, 24 hrs; for EC50: 24 hrs compound incubation, read-out: EC50 [μM] ABCA1 protein increasing efficacy. How it is done: The ability of compounds of the invention to increase the level of ABCA1 protein is determined in replicate cultures of THP-1 macrophage cells in 96-well microplates. Cells are plated at an initial density of 100,000 cells/well in 100 μl medium and differentiated to adherent macrophages with the addition of PMA (100 nM) for 68 hrs in 10% fetal bovine serum, 3 μl/L of b-mercaptoethanol, RPMI-1640 medium. Then, cells are incubated with RPMI-1640 medium containing 1% FCS, 25 μg/ml acetylated LDL, for 24 hours at 37° C. Following incubation with acetylated LDL, cells are washed twice with 50 μl PBS and incubated with 100 μl of RPMI-1640 medium containing the compound of interest solubilized in DMSO for an additional 24 hrs. The final DMSO concentration in presence of cells is maintained at 0.5%. ApoA-I binding assay using High Content Image Analysis is initiated by replacing with fresh medium, RPMI without Phenol Red, 0.2% BSA containing AlexaFluor®647 labeled ApoA-I for 2 h/37° C./5% CO2. Then, cells are fixed with 4% Formaldehyde in PBS (15 min, RT). Following Nuclei are stained with Hoechst solution (3 μM PBS) and Cytoplasm with Cell Mask Blue (2 μg/ml PBS), 15 min, RT. Finally the stained cells are fixed with a second round of formaldehyde treatment. Fixed stained cells are washed and kept in PBS at 4° C. and can be read immediately until one month after preparation.
The Alexa Fluor 647-labeled Apolipoprotein A-I (20 nM) was prepared as follows: Human recombinant Apolipoprotein A-I (ApoA-I) was exchanged to a buffer of 0.02 M NaHCO3 at pH 8.2 on an NAP desalting column (GE Healthcare) and brought to a concentration to 40 μM (1.13 mg/ml) by adjustment with the same buffer. The ApoA-I was fluorescently labeled by incubation with Alexa Fluor carboxylic acid succimidyl ester (Alexa Fluor 647, Invitrogen A-20006) at a 2:1 molar ratio (Alexa to ApoA-I) for 1 h under shaking at RT. The remaining unconjugated label was removed by buffer exchange to 0.02M NaHCO3 at pH 8.2.
Imaging and data collection were performed on an OPERA confocal microplate imaging reader using a 20× water immersion objective and UV360 or 405 laser to identify the cell nuclei and a 635 laser to identify the fluorescent ApoA-I. Eight fields of view are captured per well. Image capture and analysis was performed with the Acapella software. Background fluorescence detected in control wells without ApoA-I was subtracted.
Using XLfit3 program (ID Business Solutions Ltd. UK), the model 205 for Dose Response One Site is used to calculate the EC50 values. […] More particularly, the compounds of the present invention have EC50 values in a range of 0.1 μM to 3 μm.

T2 sequence (P21554 whole entry): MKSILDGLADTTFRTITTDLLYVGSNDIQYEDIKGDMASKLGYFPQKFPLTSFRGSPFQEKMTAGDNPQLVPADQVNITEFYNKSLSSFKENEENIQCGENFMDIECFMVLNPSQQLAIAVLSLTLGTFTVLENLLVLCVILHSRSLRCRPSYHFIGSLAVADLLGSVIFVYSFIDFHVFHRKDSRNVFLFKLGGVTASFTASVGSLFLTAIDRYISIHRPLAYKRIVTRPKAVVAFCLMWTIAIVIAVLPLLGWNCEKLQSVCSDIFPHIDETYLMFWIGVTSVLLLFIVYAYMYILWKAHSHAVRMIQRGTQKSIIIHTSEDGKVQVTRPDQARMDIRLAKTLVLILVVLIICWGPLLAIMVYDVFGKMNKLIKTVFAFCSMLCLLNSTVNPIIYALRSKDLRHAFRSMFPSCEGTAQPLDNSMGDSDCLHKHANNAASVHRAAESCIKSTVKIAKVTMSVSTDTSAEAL
T1 sequence (P34972 whole entry): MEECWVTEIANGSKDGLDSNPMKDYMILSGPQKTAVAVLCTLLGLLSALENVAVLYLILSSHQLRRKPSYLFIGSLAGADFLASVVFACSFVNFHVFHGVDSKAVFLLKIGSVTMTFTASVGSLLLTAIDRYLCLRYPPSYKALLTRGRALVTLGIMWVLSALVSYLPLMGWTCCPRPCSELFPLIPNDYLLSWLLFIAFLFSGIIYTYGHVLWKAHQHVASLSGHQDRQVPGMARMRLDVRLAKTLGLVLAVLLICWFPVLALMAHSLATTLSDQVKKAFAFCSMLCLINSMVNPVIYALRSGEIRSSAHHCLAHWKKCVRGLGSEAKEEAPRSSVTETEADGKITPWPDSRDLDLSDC

Regarding `CN(NC(=O)c1cnc(OCC(F)(F)F)c(C2CC2)c1)c1ccncc1` [Example 49, 5-cyclopropyl-6-(2,2,2-trifluoro-ethoxy)-nicotinic acid N′-methyl-N′-pyridin-4-yl-hydrazide], the inhibition at 10 µM worked out at 3% in experiment [1] and 13% in experiment [2]. For the same compound, the “% increase of ABCA1 at 3 μM” value in experiment [3] is on record as greater than 45%@ 3 μM.

For the compound `N#Cc1ccc(-c2cc(C(=O)NN3CCOCC3)cnc2OCC(F)(F)F)cc1` [Example 37, 5-(4-cyano-phenyl)-N-morpholin-4-yl-6-(2,2,2-trifluoro-ethoxy)-nicotinamide], the inhibition at 10 µM in experiment [1] is -8%; in experiment [2], 47%. Also, the EC50 in experiment [3] turned out to be 1.32 µM.

Regarding `CN(NC(=O)c1cnc(OCC(F)(F)F)c(C2CCCCC2)c1)c1ccc(Cl)nn1` [Example 22, N′-(6-chloropyridazin-3-yl)-5-cyclohexyl-N′-methyl-6-(2,2,2-trifluoroethoxy)-3-pyridinecarboxylic acid hydrazide], the results for the inhibition at 10 µM in experiment [1] and in experiment [2] were -9% and 28%, respectively. The EC50 in experiment [3] is 0.98 µM.

As to `CN(NC(=O)c1cnc(OC2CCC2)c(-c2ccco2)c1)c1ccncc1` [Example 52, 6-cyclobutoxy-5-furan-2-yl-nicotinic acid N′-methyl-N′-pyridin-4-yl-hydrazide], the inhibition at 10 µM in experiment [1] turned out to be 19%; in experiment [2] it was 31%. For the same compound, in experiment [3], the EC50 is 5.8 µM.

For `CN(NC(=O)c1cnc(OC2CCC2)c(C2CC2)c1)c1ccc(C#N)cc1` [Example 55, 6-cyclobutoxy-5-cyclopropyl-nicotinic acid N′-(4-cyano-phenyl)-N′-methyl-hydrazide], the inhibition at 10 µM in experiment [1] was 18%; in experiment [2], 27%. Besides, the “% increase of ABCA1 at 3 μM” value in experiment [3] is greater than 45%@ 3 μM.

With `CN(NC(=O)c1cnc(OC2CCC2)c(C2CC2)c1)c1ccc(F)cc1` [Example 47, 6-cyclobutoxy-5-cyclopropyl-nicotinic acid N′-(4-fluoro-phenyl)-N′-methyl-hydrazide], the inhibition at 10 µM in experiment [1] amounted to 7%; in experiment [2], 25%. For the same compound, in experiment [3], the “% increase of ABCA1 at 3 μM” value was greater than 45%@ 3 μM.

As to `O=C(NNCc1ccncc1)c1cnc(OCC(F)(F)F)c(C2CC2)c1` [Example 46, 5-cyclopropyl-6-(2,2,2-trifluoro-ethoxy)-nicotinic acid N′-pyridin-4-ylmethyl-hydrazide], the inhibition at 10 µM in experiment [1] and in experiment [2] was 11% each time. For the same compound, the “% increase of ABCA1 at 3 μM” value in experiment [3] is listed as greater than 45%@ 3 μM.

For the compound `O=C(NNc1ccc(F)cc1)c1cnc(OCC2CC2)c(C2CC2)c1` [Example 42], the figures for the inhibition at 10 µM in experiment [1] and in experiment [2] were 9% and 11%, respectively. Moreover, the EC50 in experiment [3] was found to be 3.2 µM.

With `CN(NC(=O)c1cnc(OCC(F)(F)F)c(C2CC2)c1)c1ccccc1` [Example 30, 5-cyclopropyl-6-(2,2,2-trifluoro-ethoxy)-nicotinic acid N′-methyl-N′-phenyl-hydrazide], the inhibition at 10 µM in experiment [1] stood at 13%; in experiment [2], 24%. Moreover, in experiment [3], the “% increase of ABCA1 at 3 μM” value is reported as greater than 45%@ 3 μM.

For `COC[C@@H]1CCCN1NC(=O)c1cnc(OCC(F)(F)F)c(C2CCCC2)c1` [Example 17, (S)-5-cyclopentyl-N-(2-(methoxymethyl)pyrrolidin-1-yl)-6-(2,2,2-trifluoroethoxy)-3-pyridinecarboxamide], the inhibition at 10 µM worked out at 3% in experiment [1] and 33% in experiment [2]. The EC50 in experiment [3] was 0.12 µM.

For `O=C(NN1CCC(CCO)CC1)c1cnc(OCC(F)(F)F)c(-c2ccc(Cl)cc2)c1` [Example 24, 5-(4-chlorophenyl)-N-(4-(2-hydroxyethyl)piperidin-1-yl)-6-(2,2,2-trifluoroethoxy)-3-pyridinecarboxamide], the inhibition at 10 µM is -8% in experiment [1] and 45% in experiment [2]. The “% increase of ABCA1 at 3 μM” value in experiment [3] is greater than 45%@ 3 μM.

With `NNC(=O)c1cnc(OCC(F)(F)F)c(-c2ccc(Cl)c(F)c2)c1` [Example 9, 5-(4-chloro-3-fluorophenyl)-6-(2,2,2-trifluoroethoxy)-3-pyridinecarboxylic acid hydrazide], the inhibition at 10 µM in experiment [1] is -2%; in experiment [2] it was 11%. Moreover, in experiment [3], the “% increase of ABCA1 at 3 μM” value is greater than 45%@ 3 μM.

As for `O=C(NN1CCCC1)c1cnc(OCC(F)(F)F)c(C2CCCCC2)c1` [Example 21, 5-cyclohexyl-N-(pyrrolidin-1-yl)-6-(2,2,2-trifluoroethoxy)-3-pyridinecarboxamide], the inhibition at 10 µM in experiment [1] was -17%; in experiment [2], 39%. In experiment [3], the “% increase of ABCA1 at 3 μM” value is greater than 45%@ 3 μM.

Consider `CN(CCCO)NC(=O)c1cnc(OCC(F)(F)F)c(-c2ccc(Cl)cc2)c1` [Example 28, 5-(4-chlorophenyl)-N′-(3-hydroxypropyl)-N′-methyl-6-(2,2,2-trifluoroethoxy)-3-pyridinecarboxylic acid hydrazide], for which the inhibition at 10 µM in experiment [1] was -9%; in experiment [2], 46%. In experiment [3], the “% increase of ABCA1 at 3 μM” value is greater than 45%@ 3 μM.

For `O=C(NN1CCC(CO)CC1)c1cnc(OCC(F)(F)F)c(-c2ccc(Cl)cc2)c1` [Example 26, 5-(4-chlorophenyl)-N-(4-(hydroxymethyl)piperidin-1-yl)-6-(2,2,2-trifluoroethoxy)-3-pyridinecarboxamide], the results for the inhibition at 10 µM in experiment [1] and in experiment [2] were -17% and 37%, respectively. In addition, the “% increase of ABCA1 at 3 μM” value in experiment [3] was greater than 45%@ 3 μM.

For `O=C(NNc1ccc(F)cc1)c1cnc(OC2CCC2)c(-c2ccco2)c1` [Example 48, 6-cyclobutoxy-5-furan-2-yl-nicotinic acid N′-(4-fluoro-phenyl)-hydrazide], the inhibition at 10 µM was -2% in experiment [1] and 43% in experiment [2]. Moreover, in experiment [3], the EC50 amounted to 0.8 µM.

Take `COC[C@@H]1CCCN1NC(=O)c1cnc(OCC(F)(F)F)c(C2CCCCC2)c1` [Example 23, 5-cyclohexyl-N—((S)-2-methoxymethyl-pyrrolidin-1-yl)-6-(2,2,2-trifluoro-ethoxy)-3-pyridinecarboxamide]: the figures for the inhibition at 10 µM in experiment [1] and in experiment [2] were 17% and 39%, respectively. Besides, in experiment [3], the “% increase of ABCA1 at 3 μM” value is given as greater than 45%@ 3 μM.

Regarding `C[C@@H]1CN(NC(=O)c2cnc(OCC(F)(F)F)c(C3CC3)c2)C[C@H](C)O1` [Example 44, 5-cyclopropyl-N-((2R,6S)-2,6-dimethyl-morpholin-4-yl)-6-(2,2,2-trifluoro-ethoxy)-nicotinamide], the inhibition at 10 µM came out at 5% in experiment [1] and 14% in experiment [2]. For the same compound, the “% increase of ABCA1 at 3 μM” value in experiment [3] was greater than 45%@ 3 μM.

For `CN(NC(=O)c1cnc(OCC(F)(F)F)c(C2CCCC2)c1)c1ccc(Cl)nn1` [Example 16, N′-(6-chloropyridazin-3-yl)-5-cyclopentyl-N′-methyl-6-(2,2,2-trifluoroethoxy)-3-pyridinecarboxylic acid hydrazide], the inhibition at 10 µM in experiment [1] was -5%; in experiment [2], 21%. Further, in experiment [3], the EC50 is 1.17 µM.
